Patent US11331335B2, “Sepsis treatment and related compositions methods and systems” (CALIFORNIA INSTITUTE OF TECHNOLOGY, priority 2015, dated 2022)

Key:
[1] = test system: TNBS colitis; test: TNBS colitis, systemic (spleen) inflammation after PSA; assay type: in vivo, mouse
Protocol: Three models of intestinal inflammation were used: 1) CD4^+CD45Rb^high T cells were purified from the spleens of wild-type or IL-10^−/− donor mice by flow cytometry and transferred into Rag (C57Bl/6) recipients as described. 2) TNBS colitis was induced by pre-sensitization of wild-type (C57Bl/6) mice on the skin with a TNBS/acetone mix. Seven days after sensitization, 2.5% TNBS in ethanol was administered rectally; mice were sacrificed 3-6 days later.
Cytokines from the spleen, colons, or mesenteric lymphonodes (MLNs) were assayed by ELISA, Q-PCR, or flow cytometry. Colitis was assessed with tissue sections (fixed, paraffin embedded, sectioned onto a slide, and stained with hematoxylin and eosin) and was scored by a blinded pathologist (Dr. R. T. Bronson, Harvard Medical School) according to a standard scoring system: 0, no thickening of colonic tissues and no inflammation (infiltration of lymphocytes); 1, mild thickening of tissues but no inflammation; 2, mild thickening of tissues and mild inflammation; 3, severe thickening and severe inflammation. BMDCs were purified from femurs of mice after extraction and washing in PBS. Cells were cultured for 8 days in C-RPMI-10 in the presence of GM-CSF (20 ng/mL; Biosource, Camarillo, Calif.). CD4^+ T cells were purified by negative selection over a magnetic column (Miltenyi or R& D Systems).
The backs of wild-type (C57BL/6) male mice were shaved, and pre-sensitization solution (150 μL; acetone with olive oil in a 4:1 ratio mixed with 5% TNBS in a 4:1 ratio) was slowly applied. […] Mice were analyzed 4-6 days after TNBS administration.
Animals were orally gavaged with vehicle or PSA twenty-four hours prior to being induced with colitis. Five days post-induction CD4+ T cells were isolated from the spleens of indicated animals and analyzed for the inflammatory cytokines TNF-α, IL-17a and IL-6 to determine how systemic inflammation is influenced during intestinal disease.

[2] = test system: LPS sepsis in RAG−/− mice; test: Endotoxin induced sepsis in RAG-/- mice with or without transfer of T cells, CD4 depleted splenocytes or CD19+ B cells; assay type: in vivo, mouse
Protocol: In particular, the requirement for T and B cells during PSA mediated protection from sepsis was tested.
In a first set of experiments, RAG^−/− animals were treated i.v. with either PBS or PSA 24 hours prior to receiving high dose LPS i.p. Serum was collected from animals at 1 and 4 hours, TNF-α and IL-6 were measured by ELISA (FIG. 3 Panel A) and survival monitored (FIG. 3 Panel B). Two experiments were combined. *p<0.05 **p<0.005 using a logrank and Gehan-Wilcoxon test.
In a second set of experiments, RAG^−/− recipients received either CD4+CD3+ (square) or total T cells (CD3+) (triangle) or CD4 depleted splenocytes (includes CD8+ T cells and CD19+ B cells) (sphere). Twenty-four hours later animals were given LPS. Serum was collected 1 and 4 hours post-LPS to measure cytokines (FIG. 3 Panel C) and survival was monitored (FIG. 3 Panel D).
In a third set of experiments sort purified CD19+ total B cells were purified from the spleen of donor animals and transferred into RAG^−/− recipients and inflammatory cytokines were monitored at 1 and 4 hours (FIG. 3 Panel E) as well as survival (FIG. 3 Panel F). * p<0.05 **p<0.005 by a student's t test for all ELISA data and *p<0.05 **p<0.005 using a logrank and Gehan-Wilcoxon test for survival data. ELISA data is representative from one experiment repeated twice with an n of 4 in each group. Survival data combines multiple experiments.

[3] = test system: cecal-ligation puncture (CLP) model; test: Cecal-ligation puncture (CLP) model of sepsis; assay type: in vivo, mouse; conditions: PSA vs PBS mock treated (about fifty percent succumbed)
Text: To validate a role for PSA during protection from sepsis, a second, well-established mouse model of sepsis called the cecal-ligation puncture (CLP) model was used. CLP induces colonic spillage of bacteria into the peritoneal cavity, which then enter the bloodstream. Although there are limitations, this model is thought to best mimic a primary cause of human sepsis (polymicrobial infection from the gut).

[4] = test system: endotoxin shock in IL-10−/− mice; test: Endotoxin induced sepsis in IL-10-/- mice; assay type: in vivo, mouse
Protocol: (§1) FIG. 6 Panels C and A show detection of TNF-a in TLR2^−/− or IL-10^−/− mice treated intravenously treated i.v. with PBS or PSA directly following induction of endotoxin shock by intraperitoneal administration of high doses of LPS (500 ug).
(§2) Therefore, to determine whether PSA protection from endotoxin induced sepsis also required these pathways the following experiments were performed.

[5] = test system: endotoxin induced sepsis, Balb/c animals; test: Endotoxin induced sepsis, PSA administered i.v. after LPS; assay type: in vivo, mouse
Protocol: To mimic a clinically significant treatment situation, PSA was administered after inducing endotoxin induced sepsis. Balb/c animals were treated with high doses of LPS (500 ug) i.p. and subsequently treated i.v. with PBS, PSA or PSA was administered 30 minutes post-LPS (see FIG. 2).
Since this is an acute model, where overt inflammation occurs within one hour after induction two timepoints for PSA treatment were tested. In particular, serum was collected 1 and 4 hours post-LPS injection and cytokines TNF-α (FIG. 2 Panel A) and IL-6 (FIG. 2 Panel B) were detected by ELISA.
Each experiment consisted of at least 4 animals in each groups and was repeated twice. * p<0.05 **p<0.005 as measured by a students t test One group received i.v. administration of PSA directly after LPS injection (PSA same) while the second group received PSA thirty minutes post-LPS injection (PSA-post) (FIG. 2).

[6] = test system: endotoxin (lipopolysaccharide; LPS) induced sepsis, Balb/c animals; test: Endotoxic shock model (high dose LPS), PSA given orally or intravenously before induction; assay type: in vivo, mouse
Protocol: In this model, animals are treated intravenously with high doses of endotoxin (lipopolysaccharide; LPS). Administration of LPS leads to the production of massive amounts of inflammatory cytokines such as tumor necrosis factor α (TNF-α) and IL-6 and animals rapidly succumb to death. This model closely resembles the cytokine storm seen in patients suffering from septic shock.
(§3) Five days post-induction CD4+ T cells were isolated from the spleens of the indicated animals. Equal amounts of RNA were used to perform q-RT-PCR on IL6 or TNFa cytokines at 1 and 4 hours post-LPS. (FIG. 1 panel A diagram on the left, and FIG. 1 panel B diagram on the left)
as §3, with “In another set of experiments, Balb/c animals were treated intravenously with PSA 24 hours prior to be induced with TNBS colitis. Five” for “Five”, “right,” for “left,”, “right)” for “left)”
Detection of percent survival of in animals treated intravenously with high doses of endotoxin (lipopolysaccharide; LPS) was performed. Accordingly, Balb/C animals were orally or intravenously treated with PSA or PBS as described in Example 2 and the number of surviving mice counted.

[7] = test system: marginal zone B cells; test: Transfer of MZ B cells from PSA treated donors into RAG-/- recipients, then LPS induced sepsis; assay type: in vivo, mouse
Protocol: To further validate this conclusion, experiments were performed to determine whether the function of PSA on MZ B cells could be transplanted into mice that have never been treated with PSA. WT animals were treated i.v. with two doses of PSA and splenic MZ B cells were isolated and subsequently transferred into a RAG^−/− recipients. LPS induced sepsis was then induced in the MZ B cell recipients without any treatment with PSA.
In particular a second set of experiments, WT C57Bl/6 animals were treated i.v. with either PBS or PSA (100 ug) every other day for a total of three days (FIG. 4 Panels C and D). MZ B cells were subsequently sort purified as in the first set of experiments and 8×10^5 MZ B cells were transferred into RAG^−/− recipients. Twenty-four hours later animals received high dose LPS (500 ug). Serum was collected at indicated time points to analyze TNF-α (FIG. 4 Panel E) and survival monitored (FIG. 4 Panel F). * p<0.05 **p<0.005 by a student's t test for all ELISA data and *p<0.05 **p<0.005 using a logrank and Gehan-Wilcoxon test for survival data.
Marginal zone B cells secrete copious amounts of polyreactive IgM. […] Based on this, serum was isolated from RAG^−/− animals that received a MZ B transplant from PSA treated mice and quantitated IgM serum levels.

[8] = test system: LPS sepsis in RAG−/− recipients of B1 or MZ B cells; test: Endotoxin induced sepsis in RAG-/- recipients of sort purified B1 or MZ B cells, treated with PSA; assay type: in vivo, mouse
Protocol: Multiple subsets of B cells exist within the spleen including B1, follicular, and MZ B cell populations. […] Both B1 and MZ B cells can secrete IgM in a T cell independent manner, therefore experiments were performed to determine whether either of these subsets conferred protection from sepsis by PSA. B1 cells and MZ B cells were sort purified and transferred into RAG^−/− animals. Animals were subsequently treated with PSA and induced for disease.
In particular in a first set of experiments, marginal zone B cells (CD19+B220+IgM^hiCD21^hiCD23) were sort purified and transferred into RAG^−/− recipients. Twenty-four hours later these animals were given high dose LPS and serum collected at 1 and 4 hours to assay for TNF-α (FIG. 4 Panel A) and survival was monitored (FIG. 4 Panel B).

[9] = test system: LPS sepsis in RAG−/− recipients of sIgM−/− B cells; test: Endotoxin induced sepsis in RAG-/- recipients of B cells from sIgM-/- mice; assay type: in vivo, mouse
Text: To test whether IgM is the mechanism by which PSA is able to protect from endotoxin induced sepsis total B cells were isolated from the spleen of animals that are unable to make secreted IgM (sIgM^−/−) and transferred these cells into RAG^−/− recipients according to procedure of Example 7.

[10] = test system: TNF-α or IL-6 production; test: Cytokine induction by PSA administered i.v. alone; conditions: data not shown
[11] = test system: endotoxin shock in TLR2−/− mice; test: Endotoxin induced sepsis in TLR2-/- mice; assay type: in vivo, mouse
Protocol: as §1, §2

[12] = RAG−/− mice reconstituted with CD19+ total B cells, i.v. PSA vs PBS
[13] = PSA i.v. following LPS 500 ug i.p.
[14] = PSA i.v. thirty minutes post-LPS (PSA post)

## polysaccharide A [PSA]
[1]; PSA orally gavaged 24 h prior to colitis induction, five days post-induction, vs colitogenic animals
  inflammatory cytokine expression (TNF-α, IL-17a, IL-6) in splenic CD4+ T cells: reduced cytokine expression
[1]; intravenous PSA 24 h prior to TNBS colitis
  whether PSA influences inflammation within the systemic compartment (colon disease score, survival; FIG. 5 C, D): supported this conclusion
[1]; orally gavaged PSA
  splenomegaly in colitic animals: able to prevent
[2]; RAG−/− animals (no T and B cells), PSA i.v. 24 hours prior to high dose LPS i.p.
  protection from sepsis (serum TNF-α, survival): no longer protected animals from sepsis
[2]; [12]
  serum levels of TNFα: significantly reduced
  survival: survived
[2]; RAG−/− recipients of CD3+ total T cells
  PSA mediated protection from death: unable to restore PSA mediated protection from death
[2]; RAG−/− recipients of CD4+ T cell depleted splenocytes
  prevention of death and suppression of systemic inflammation: restored the ability of PSA to prevent death and suppress systemic inflammation
[2]; RAG−/− recipients of CD4+ sort purified T cells
  PSA mediated protection from death: unable to restore PSA mediated protection from death
[3]
  survival: significantly increased survival rate
[4]; PSA i.v.
  TNFα and IL-6 levels during septic shock: suppressed
[4]; [13]
  survival: completely protected from death
[5]; PSA i.v. directly following LPS 500 ug i.p. (PSA same), 1 and 4 hours post-LPS
  serum TNF-α and IL-6 levels: reduced levels
[5]; PSA i.v. directly following LPS (PSA same)
  survival: high survival rate
[5]; [14]
  serum TNF-α: lower serum levels
  survival: higher survival rate
[6]; PSA provided directly within the blood (intravenous), 1 and 4 hours post-LPS, vs mock treated
  serum inflammatory cytokines (TNF-α, IL-6): significantly blocked induction of serum inflammatory cytokines
[6]; animals fed PSA (oral gavage), vs mock treated
  serum TNF-α: slightly elevated
[6]; intravenous administration of PSA
  survival: potently protected animals from death
[7]; RAG−/− recipients of 8×10^5 MZ B cells from donors treated i.v. with PSA (100 ug), recipients not treated with PSA, LPS 500 ug
  protection from endotoxin induced sepsis (serum TNF-α, mortality): completely protected from endotoxin induced sepsis
[7]; RAG−/− recipients of MZ B cells from PSA treated animals vs from mock treated mice
  IgM serum levels during LPS induced sepsis: high levels of circulating IgM
[8]; RAG−/− recipients of B1b cells, data not shown
  PSA mediated protection: did not restore PSA mediated protection
[8]; RAG−/− recipients of purified MZ B cells, PSA treated
  survival: protect animals from sepsis induced death
[8]; RAG−/− recipients of purified MZ B cells, PSA treated, 1 and 4 hours after high dose LPS
  serum levels of TNF-α: suppression of serum levels of TNF-α
[9]; PSA i.v. treated animals vs PBS treated
  protection from sepsis (serum inflammatory cytokines, death): protected
[9]; RAG−/− animals that received MZ B cells from sIgM−/− mice, PSA i.v.
  protection from sepsis (serum inflammatory cytokines, death): no longer protected by administration of PSA
[10]; PSA i.v. into animals
  overt inflammation on i.v. administration: does not elicit overt inflammation
[10]; PSA i.v., no LPS
  TNF-α or IL-6 production induced by PSA on its own: does not on its own induce
[11]; PSA i.v.
  TNFα and IL-6 levels during septic shock: suppressed
[11]; [13]
  survival: completely protected from death
